Molecular target: KRas (Homo sapiens, UniProt P01116, G12C)
Test: KRas degradation in NCI-H2030 cells by Western blot, normalized to GAPDH (data of Table 14)
Type: cell-based
Parameters: host or cells: NCI-H2030
Conditions: for Dmax: NCI-H2030
How it was run: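 After overnight adherence and 24 h without FBS, compounds added at 0.3, 1 or 3 μM (0.1% DMSO) for 24 h (VHL-based) or 72 h (others). Western blot of RIPA lysates, KRas signal over GAPDH relative to DMSO; DC50 and DMax derived, or <25% scored visually.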

Row | Structure (SMILES) | Percent Degradation at Indicated Concentration (μM) (H2030, 0.3 μM) | Percent Degradation at Indicated Concentration (μM) (H2030, 1 μM) | Percent Degradation at Indicated Concentration (μM) (H2030, 3 μM) | Dmax [%] | Percent Degradation at Indicated Concentration (μM): 0.3 (H2030 cells, 0.3 μM) | Percent Degradation at Indicated Concentration (μM): 1 (H2030 cells, 1 μM) | Percent Degradation at Indicated Concentration (μM): 3 (H2030 cells, 3 μM) | Dmax (H2030 cells) [%] | Percent Degradation at Indicated Concentration (μM) (H2030 cells, 0.3 μM) | Percent Degradation at Indicated Concentration (μM) (H2030 cells, 1 μM) | Percent Degradation at Indicated Concentration (μM) (H2030 cells, 3 μM)
1 | Cc1ncsc1-c1ccc([C@H](C)NC(=O)[C@@H]2C[C@@H](O)CN2C(=O)[C@@H](NC(=O)COCCN(C)C(=O)CCNc2nc(N3CCN(C(=O)C(O)O)CC3)c3cc(Cl)c(-c4c(O)cccc4F)c(F)c3n2)C(C)(C)C)cc1 (atropisomer, axis not shown) [compound 234, (2S,4R)-1-((S)-2-(2-(2-(3-(((S)-6-chloro-4-(4-(2,2-dihydroxyacetyl)piperazin-1-yl)-8-fluoro-7-(2-fluoro-6-hydroxyphenyl)quinazolin-2-yl)amino)-N-methylpropanamido)ethoxy)acetamido)-3,3-dimethylbutanoyl)-4-hydroxy-N-((S)-1-(4-(4-methylthiazol-5-yl)phenyl)ethyl)pyrrolidine-2-carboxamide] | C (Percent Degradation: C ≤ 35) | C (Percent Degradation: C ≤ 35) | C (Percent Degradation: C ≤ 35) | ≤ 35 | – | – | – | – | – | – | –
2 | C=CC(=O)N1CCN(c2nc(NCCC(=O)N(C)CCOCCOCCOCCOc3ccc4c(c3)CN(C3CCC(=O)NC3=O)C4=O)nc3c(F)c(-c4cc(O)cc5ccccc45)c(Cl)cc23)CC1 (stereo not shown) [compound 67, 3-((4-(4-acryloylpiperazin-1-yl)-6-chloro-8-fluoro-7-(3-hydroxynaphthalen-1-yl)quinazolin-2-yl)amino)-N-(2-(2-(2-(2-((2-(2,6-dioxopiperidin-3-yl)-1-oxoisoindolin-5-yl)oxy)ethoxy)ethoxy)ethoxy)ethyl)-N-methylpropanamide] | – | – | – | – | C (C ≤ 35) | C (C ≤ 35) | C (C ≤ 35) | ≤ 35 | – | – | –
3 | C=CC(=O)N1CCN(c2nc(NCCC(=O)N(C)CCOCCNc3cccc4c3C(=O)N(C3CCC(=O)NC3=O)C4=O)nc3c(F)c(-c4cc(O)cc5ccccc45)c(Cl)cc23)CC1 (stereo not shown) [compound 56, 3-((4-(4-acryloylpiperazin-1-yl)-6-chloro-8-fluoro-7-(3-hydroxynaphthalen-1-yl)quinazolin-2-yl)amino)-N-(2-(2-((2-(2,6-dioxopiperidin-3-yl)-1,3-dioxoisoindolin-4-yl)amino)ethoxy)ethyl)-N-methylpropanamide] | – | – | – | – | C (C ≤ 35) | C (C ≤ 35) | C (C ≤ 35) | ≤ 35 | – | – | –
4 | C=CC(=O)N1CCN(c2nc(NCCC(=O)N(C)CCOCCOCCOCCOCC(=O)N[C@H](C(=O)N3C[C@H](O)C[C@H]3C(=O)N[C@@H](C)c3ccc(-c4scnc4C)cc3)C(C)(C)C)nc3c(F)c(-c4c(O)cccc4F)c(Cl)cc23)CC1 (atropisomer, axis not shown) [compound 212, (2S,4R)-1-((S)-21-(((R)-4-(4-acryloylpiperazin-1-yl)-6-chloro-8-fluoro-7-(2-fluoro-6-hydroxyphenyl)quinazolin-2-yl)amino)-2-(tert-butyl)-18-methyl-4,19-dioxo-6,9,12,15-tetraoxa-3,18-diazahenicosanoyl)-4-hydroxy-N-((S)-1-(4-(4-methylthiazol-5-yl)phenyl)ethyl)pyrrolidine-2-carboxamide] | C (Percent Degradation: C ≤ 35) | C (Percent Degradation: C ≤ 35) | C (Percent Degradation: C ≤ 35) | ≤ 35 | – | – | – | – | – | – | –
5 | CCC(=O)N1CCN(c2nc(NCCC(=O)N(C)CCOCCOCCNc3cccc4c3C(=O)N(C3CCC(=O)NC3=O)C4=O)nc3c(F)c(-c4cc(O)cc5ccccc45)c(Cl)cc23)CC1 (stereo not shown) [compound 43, 3-((6-chloro-8-fluoro-7-(3-hydroxynaphthalen-1-yl)-4-(4-propionylpiperazin-1-yl)quinazolin-2-yl)amino)-N-(2-(2-(2-((2-(2,6-dioxopiperidin-3-yl)-1,3-dioxoisoindolin-4-yl)amino)ethoxy)ethoxy)ethyl)-N-methylpropanamide] | – | – | – | – | C (C ≤ 35) | C (C ≤ 35) | C (C ≤ 35) | ≤ 35 | – | – | –
6 | Cc1ncsc1-c1ccc([C@H](C)NC(=O)[C@@H]2C[C@@H](O)CN2C(=O)[C@@H](NC(=O)COCCOCC/C=C/C(=O)N2CCN(c3ncnc4c(F)c(-c5cc(O)cc6ccccc56)c(Cl)cc34)CC2)C(C)(C)C)cc1 [compound 373, (2S,4R)-1-((2S)-2-(2-(2-(((E)-5-(4-(6-chloro-8-fluoro-7-(3-hydroxynaphthalen-1-yl)quinazolin-4-yl)piperazin-1-yl)-5-oxopent-3-en-1-yl)oxy)ethoxy)acetamido)-3,3-dimethylbutanoyl)-4-hydroxy-N-((S)-1-(4-(4-methylthiazol-5-yl)phenyl)ethyl)pyrrolidine-2-carboxamide] | C (Percent Degradation: C ≤ 35) | C (Percent Degradation: C ≤ 35) | C (Percent Degradation: C ≤ 35) | ≤ 35 | – | – | – | – | – | – | –
7 | C=CC(=O)N1CCN(c2nc(NCCC(=O)N(C)CCOCCOCCOCCOc3ccc(-c4csc([C@@H]5CCCN5C(=O)[C@@H](NC(=O)[C@H](C)NC)C5CCCCC5)n4)c4ccccc34)nc3c(F)c(-c4cc(O)cc5ccccc45)c(Cl)cc23)CC1 [compound 273, 3-((4-(4-acryloylpiperazin-1-yl)-6-chloro-8-fluoro-7-(3-hydroxynaphthalen-1-yl)quinazolin-2-yl)amino)-N-(2-(2-(2-(2-((4-(2-((S)-1-((S)-2-cyclohexyl-2-((S)-2-(methylamino)propan-amido)acetyl)pyrrolidin-2-yl)thiazol-4-yl)naphthalen-1-yl)oxy)ethoxy)ethoxy)eth-oxy)ethyl)-N-methylpropanamide] | C (Percent Degradation: C ≤ 35) | C (Percent Degradation: C ≤ 35) | C (Percent Degradation: C ≤ 35) | ≤ 35 | – | – | – | – | – | – | –
8 | C=CC(=O)N1CCN(c2nc(O[C@H](C)CN3CCC(OCCOCCOCCOCCOc4ccc5c(c4)C(=O)N(C4CCC(=O)NC4=O)C5=O)CC3)nc3c2CCN(c2cc(O)cc4ccccc24)C3)CC1 (stereo partly drawn) [compound 419, 5-(2-(2-(2-(2-((1-((R)-2-((4-(4-acryloylpiperazin-1-yl)-7-(3-hydroxynaphthalen-1-yl)-5,6,7,8-tetrahydropyrido[3,4-d]pyrimidin-2-yl)oxy)propyl)piperidin-4-yl)oxy)ethoxy)ethoxy)ethoxy)ethoxy)-2-(2,6-dioxopiperidin-3-yl)isoindoline-1,3-dione] | – | – | – | – | – | – | – | – | C (Percent Degradation: C ≤ 35) | C (Percent Degradation: C ≤ 35) | C (Percent Degradation: C ≤ 35)
